Measured values published in patent US20150152441A1, “METHODS AND SYSTEMS FOR IMPROVING FERMENTATION EFFICIENCY” (LanzaTech New Zealand Limited, priority 2013, published 2015).

How the values were obtained:
[1] = cited from earlier work
[2] = tested on: Clostridium autoethanogenum culture; assay: Determination of effect of BTEX on fermentation (continuous CO gas fermentation; impact seen as rising pH and/or effect on CO and H2 uptake); type: cell-based; conditions: for Liquid tolerance level / Liquid impact level (ppm): level in fermentation broth, compound added individually; for Liquid tolerance level: addition lowered until no effect was observed; for Liquid impact level (ppm): impact = rising pH and/or effect on CO and H2 uptake
Protocol: Media was prepared according to the composition described in Tables 1-3 to a volume of 1.5 L and 1.5 ml of resazurin added. The solution was heated and agitated whilst degassed with N2. A Na2S drip was started at a rate of 0.5 ml/hr and temperature of the bioreactor set to 37° C. The pH was adjusted to 5.0 with NH4OH and chromium was added to adjust the ORP to −200 mV. The bioreactor was then supplied with RMG (43% CO, 20% CO2, 2.5% H2 and 33% N2) at a flow rate of 50 ml/min. The solution was inoculated with 150 ml of an actively growing Clostridium autoethanogenum culture. The fermentation was operated continuously for a period of 41 days at dilution rate 1.5. At day 26.8, Toluene was added to the gas phase. To achieve this, the inflow gas was sparged through a toluene solution, which allowed toluene to accumulate in the reactor. Toluene was allowed to accumulate for 17 hours. The fermentation was allowed to recover and the experiment was repeated on day 27.8.
The reactor was allowed to recover. On day 35 Benzene was added to the gas phase. To achieve this, the inflow gas was sparged through a benzene solution, which allowed benzene to accumulate in the reactor. […] Benzene was allowed to accumulate to higher concentrations.
The effect of the addition of xylene and ethylbenzene were also performed using the same techniques. Based on vapour pressure the compounds would evaporate at a certain rate into gaseous phase.
The effect of the introduction of the various BTEX compounds on bacterial culture performance was determined by measurement of the following: culture density, metabolite concentration (ethanol, acetate, etc), oxidation-reduction potential, pH, carbon monoxide and hydrogen consumption. The compound accumulation in the gas and culture liquid phase was determined by GC-MS measurements.
Liquid tolerance levels were determined by lowering the addition until no effect was observed.

Compound	mm Hg vapor pressure (25° C.) [1]	level in broth at which the compound began to effect the fermentation ([2]; FIG. 5-7)	accumulation resulting in an increase in pH and decrease in CO uptake ([2]; FIG. 6, 7)	accumulation level with no observable effect on the fermentation ([2]; benzene added to gas phase on day 35)	Liquid tolerance level [2]	Liquid impact level (ppm) [2]	effect of addition to the reactor on the fermentation [2]	level in fermentation broth at which CO uptake decreased, with rising pH trend ([2]; after 3.5 hours exposure, FIG. 2-4)	level in broth below which CO uptake and pH returned to pre-addition levels (fermentation recovers) ([2]; after toluene addition was stopped)	effect on carbon monoxide utilisation of the microorganism ([2]; excess levels in fermentation solution)
c1ccccc1 [Benzene]	76 mm Hg	≥ 50 ppm	greater than 50 ppm	≤ 40 ppm	<40 ppm	>40 ppm				
CCc1ccccc1 [Ethyl Benzene]	7 mm Hg				<10 ppm	>20 ppm	same effect was also seen			
Cc1ccccc1 [Toluene]	22 mm Hg				<25 ppm	>50 ppm		greater than 100 ppm	below 100 ppm	clear negative effect
c1ccc2ccccc2c1 [naphthalene]							does not have a negative effect on the fermentation			
Xylenes					<10 ppm	>100 ppm	same effect was also seen			
